Source: patent publication US8791132B2, “Compounds and methods for treatment of hypertension” (Medivation Technologies, Inc., priority 2011, dated 2014)
Like-named read-outs stand apart in the source and are kept apart here.

Experiments:
[1] = target: T1, human recombinant adrenergic α2B receptor (Homo sapiens, UniProt P18089); experiment: Radioligand binding, adrenergic α2B ([3H]Rauwolscine); conditions: for Percentage inhibition of ligand binding, Adrenergic α2B (0.03 μM): compound at 0.03 μM; for Percentage inhibition of ligand binding, Adrenergic α2B (0.03 μM) / inhibition at 0.03 µM / inhibition at 0.1 µM: [3H]Rauwolscine, repeat datapoints each shown; for inhibition at 0.03 µM: read-out: Percentage inhibition of ligand binding, Adrenergic α2B (0.03 μM), compound at 0.03 μM; for inhibition at 0.1 µM: read-out: Percentage inhibition of ligand binding, Adrenergic α2B (0.1 μM), compound at 0.1 μM
T1 construct: expressed in transfected cells; host or cells: CHO-K1
T1 sequence (P18089 1-450): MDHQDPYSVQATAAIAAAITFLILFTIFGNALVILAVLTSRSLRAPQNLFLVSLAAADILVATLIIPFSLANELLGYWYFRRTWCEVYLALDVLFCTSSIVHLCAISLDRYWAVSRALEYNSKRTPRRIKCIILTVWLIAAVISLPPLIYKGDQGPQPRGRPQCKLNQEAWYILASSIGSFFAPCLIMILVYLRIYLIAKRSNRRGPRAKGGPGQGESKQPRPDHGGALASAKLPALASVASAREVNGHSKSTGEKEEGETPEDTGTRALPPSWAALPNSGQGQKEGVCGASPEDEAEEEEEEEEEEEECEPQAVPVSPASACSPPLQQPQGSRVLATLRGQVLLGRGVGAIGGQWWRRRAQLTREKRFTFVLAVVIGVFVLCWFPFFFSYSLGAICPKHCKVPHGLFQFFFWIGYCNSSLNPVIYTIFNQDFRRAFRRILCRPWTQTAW
Method in brief: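 Readout: percent inhibition of specific [3H]Rauwolscine binding, measured by filtration and counting. Conditions: CHO-K1 cell-expressed receptor, 2.5 nM radioligand, 60 min, 25° C, Tris-HCl pH 7.4 buffer with MgCl2, EDTA, BSA. Non-specific binding: 10 μM Prazosin.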

[2] = target: T2, rat adrenergic α1B receptor (Rattus norvegicus, UniProt P15823); experiment: Radioligand binding, adrenergic α1B ([3H]Prazosin); conditions: [3H]Prazosin, repeat datapoints each shown; for Percentage inhibition of ligand binding, Adrenergic α1B (0.1 μM): compound at 0.1 μM; for inhibition at 0.1 µM: read-out: Percentage inhibition of ligand binding, Adrenergic α1B (0.1 μM), compound at 0.1 μM
T2 construct: rat adrenergic α1B receptor obtained from Wistar Rat liver; from tissue; host or cells: Wistar rat liver
T2 sequence (P15823 1-515): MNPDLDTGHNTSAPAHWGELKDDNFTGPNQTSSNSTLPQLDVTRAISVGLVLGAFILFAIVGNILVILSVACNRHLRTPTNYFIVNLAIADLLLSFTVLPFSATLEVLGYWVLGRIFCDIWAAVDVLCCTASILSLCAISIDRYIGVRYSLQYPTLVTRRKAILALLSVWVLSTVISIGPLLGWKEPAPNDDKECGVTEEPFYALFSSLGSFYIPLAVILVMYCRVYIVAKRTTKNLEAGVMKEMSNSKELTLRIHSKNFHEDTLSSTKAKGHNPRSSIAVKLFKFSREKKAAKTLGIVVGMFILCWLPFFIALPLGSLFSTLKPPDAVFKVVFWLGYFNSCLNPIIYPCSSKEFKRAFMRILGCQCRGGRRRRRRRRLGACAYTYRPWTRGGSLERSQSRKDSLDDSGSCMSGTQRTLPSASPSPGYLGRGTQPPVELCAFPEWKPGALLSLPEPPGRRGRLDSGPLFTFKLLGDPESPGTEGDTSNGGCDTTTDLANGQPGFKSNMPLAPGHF
Method in brief: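 Filter binding with Wistar rat liver α1B preparation: test compound plus 0.25 nM [3H]prazosin, 1 h at 25° C in modified Tris-HCl buffer pH 7.4.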

[3] = target: T3, human recombinant adrenergic α2A receptor (Homo sapiens, UniProt P08913); experiment: Radioligand binding, adrenergic α2A ([3H]MK-912); conditions: [3H]MK-912, repeat datapoints each shown; for Percentage inhibition of ligand binding, Adrenergic α2A (0.1 μM): compound at 0.1 μM; for inhibition at 0.1 µM: read-out: Percentage inhibition of ligand binding, Adrenergic α2A (0.1 μM), compound at 0.1 μM
T3 construct: expressed in transfected cells; host or cells: insect Sf9 cells
T3 sequence (P08913 1-465): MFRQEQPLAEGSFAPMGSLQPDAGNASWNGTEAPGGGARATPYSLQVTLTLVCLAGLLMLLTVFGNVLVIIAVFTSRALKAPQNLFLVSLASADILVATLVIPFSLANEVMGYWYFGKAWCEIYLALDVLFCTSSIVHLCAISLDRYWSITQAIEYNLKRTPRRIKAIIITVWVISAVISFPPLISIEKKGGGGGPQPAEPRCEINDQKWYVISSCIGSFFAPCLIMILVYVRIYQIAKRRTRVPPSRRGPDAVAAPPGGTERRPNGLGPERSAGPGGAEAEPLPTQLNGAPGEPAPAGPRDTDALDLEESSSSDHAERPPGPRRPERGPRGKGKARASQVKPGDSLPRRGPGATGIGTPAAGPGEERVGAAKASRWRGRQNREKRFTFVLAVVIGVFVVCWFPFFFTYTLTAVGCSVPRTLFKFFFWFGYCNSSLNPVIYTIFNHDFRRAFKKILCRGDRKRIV
Method in brief: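 Receptor expressed in insect Sf9 cells, assayed in 50 mM Tris-HCl pH 7.4 with 12.5 mM MgCl2 and 2 mM EDTA. Compounds incubated with 1 nM [3H]MK-912 for 60 min at 25 °C; nonspecific binding defined with 10 μM WB-4101. Filter-bound radioactivity counted; values are percent inhibition of specific binding.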

| Percentage inhibition of ligand binding, Adrenergic α2B (0.03 μM) [1] [%] | Percentage inhibition of ligand binding, Adrenergic α1B (0.1 μM) [2] [%] | Percentage inhibition of ligand binding, Adrenergic α2A (0.1 μM) [3] [%] | Ki ([1]; read-out: Ki α2B) [nM] | inhibition at 0.03 µM [1] [%] | inhibition at 0.1 µM [2] [%] | inhibition at 0.1 µM [3] [%] | SMILES | inhibition at 0.1 µM [1] [%] | Ki ([1]; Ki α2B) [nM] | inhibition at 0.03 µM ([2]; read-out: Percentage inhibition of ligand binding, Adrenergic α1B (0.03 μM), compound at 0.03 μM) [%] |
| --- | --- | --- | --- | --- | --- | --- | --- | --- | --- | --- |
| 32 | 16 | 19 | – | – | – | – | Cc1ccc2c(c1)c1c(n2CC(C)(N)c2cccnc2)CCN(C)C1 (single isomer, unassigned) [149b, 1-(2,8-dimethyl-3,4-dihydro-1H-pyrido[4,3-b]indol-5(2H)-yl)-2-(pyridin-3-yl)propan-2-amine] | – | – | – |
| 96 | – | – | 1.57 | 88 | 16 | 16 | Cc1ccc2c(c1)c1c(n2CC(c2ccncc2)N(C)C)CCN(C)C1 (single isomer, unassigned) [150a] | 100 | – | – |
| 93 | – | – | – | – | 11 | 15 | CNC(Cn1c2c(c3cc(C)ccc31)CN(C)CC2)c1ccncc1 (single isomer, unassigned) [151a, 2-(1,2,3,4-tetrahydro-2,8-dimethylpyrido[4,3-b]indol-5-yl)-N-methyl-1-(pyridin-4-yl)ethanamine] | – | – | – |
| 37 | 9 | 8 | – | – | – | – | CNC(Cn1c2c(c3cc(C)ccc31)CN(C)CC2)c1ccncc1 (single isomer, unassigned) [151b, 2-(1,2,3,4-tetrahydro-2,8-dimethylpyrido[4,3-b]indol-5-yl)-N-methyl-1-(pyridin-4-yl)ethanamine] | – | – | – |
| 52 | 53 | −12 | – | – | – | – | Cc1cnc2c(c1)c1c(n2CC(N)c2ccc(C#N)cc2)CCN(C)C1 (single isomer, unassigned) [159b] | – | – | – |
| – | 35 | −12 | – | 43 | – | – | Cc1cnc2c(c1)c1c(n2CC(N)c2ccc(C#N)cc2)CCNC1 (single isomer, unassigned) [160a] | – | – | – |
| 41 | 65 | 5 | – | – | – | – | Cc1cnc2c(c1)c1c(n2CC(N)c2ccc(C#N)cc2)CCNC1 (single isomer, unassigned) [160b] | – | – | – |
| 65 | 54 | 18 | – | – | – | – | Cc1ccc2c(c1)c1c(n2CC(O)c2ccc(F)cc2F)CCN(C)CC1 (single isomer, unassigned) [172a] | – | – | – |
| 93 | 92 | 46 | – | – | – | – | Cc1ccc2c(c1)c1c(n2CC(O)c2ccc(F)cc2F)CCN(C)CC1 (single isomer, unassigned) [172b] | – | – | – |

| SMILES | Percentage inhibition of ligand binding, Adrenergic α2B (0.03 μM) [1] [%] | Percentage inhibition of ligand binding, Adrenergic α1B (0.1 μM) [2] [%] | Percentage inhibition of ligand binding, Adrenergic α2A (0.1 μM) [3] [%] | Ki ([1]; read-out: Ki α2B) [nM] | inhibition at 0.03 µM [1] [%] | inhibition at 0.1 µM [2] [%] | inhibition at 0.1 µM [3] [%] | inhibition at 0.1 µM [1] [%] | Ki ([1]; Ki α2B) [nM] | inhibition at 0.03 µM ([2]; read-out: Percentage inhibition of ligand binding, Adrenergic α1B (0.03 μM), compound at 0.03 μM) [%] |
| --- | --- | --- | --- | --- | --- | --- | --- | --- | --- | --- |
| Cc1ccc2c(c1)c1c(n2CC(N)c2ccncc2)CCN(C)CC1 (single isomer, unassigned) [154a, 2-(3,9-dimethyl-2,3,4,5-tetrahydroazepino[4,5-b]indol-6(1H)-yl)-1-(pyridin-4-yl)ethanamine] | 31 | 39 | 4 | – | – | – | – | – | – | – |
| Cc1ccc2c(c1)c1c(n2CC(N)c2ccncc2)CCN(C)CC1 (single isomer, unassigned) [154b, 2-(3,9-dimethyl-2,3,4,5-tetrahydroazepino[4,5-b]indol-6(1H)-yl)-1-(pyridin-4-yl)ethanamine] | 83 | – | – | – | 80 | 95 | 5 | 95 | 3.33 | 80 |
| Cc1ccc2c(c1)c1c(n2CC(N)c2ccncc2)CC2CCC1N2C (single isomer, unassigned) [155b] | 5 | 1 | 5 | – | – | – | – | – | – | – |
